Assay results published in patent publication US9150589B2, “Polymorphous forms III and IV of N-benzoyl—staurosporine” (NOVARTIS AG, priority 2009, dated 2015).

Assay: Thermal decomposition on heating under nitrogen atmosphere
Type: physicochemical
Conditions: heating rate of 20K/min under nitrogen atmosphere
Description: The crystalline form III decomposes above 270° C., when heated with a heating rate of 20K/min under nitrogen atmosphere.
The crystalline form IV decomposes at about 270° C. when heated at 20K/min under nitrogen atmosphere.

Row | decomposition temperature | Compound
1 | above 270 °C | CO[C@@H]1[C@H](N(C)C(=O)c2ccccc2)C[C@H]2O[C@]1(C)n1c3ccccc3c3c4c(c5c6ccccc6n2c5c31)C(=O)NC4 [crystalline form III, N-[(9S,10R,11R,13R)-2,3,10,11,12,13-hexahydro-10-methoxy-9-methyl-1-oxo-9,13-epoxy-1H,9H-diindolo[1,2,3-gh:3′,2′,1′-lm]pyrrolo[3,4-j][1,7]benzodiazonin-11-yl]-N-methylbenzamide]
2 | about 270 °C | CO[C@@H]1[C@H](N(C)C(=O)c2ccccc2)C[C@H]2O[C@]1(C)n1c3ccccc3c3c4c(c5c6ccccc6n2c5c31)C(=O)NC4 [crystalline form IV, N-[(9S,10R,11R,13R)-2,3,10,11,12,13-hexahydro-10-methoxy-9-methyl-1-oxo-9,13-epoxy-1H,9H-diindolo[1,2,3-gh:3′,2′,1′-lm]pyrrolo[3,4-j][1,7]benzodiazonin-11-yl]-N-methylbenzamide]
